Where two headings read alike, the source gives them in different places.
How the values were obtained:
[1] = Cytotoxicity, cell viability assay; assay type: cell-based, Human; conditions: human, ht-1080 cells
Protocol: After 24 h of growth, cells were treated with 10 or 12-point serial dilutions of compounds in indicated concentrations for 18 h.

HT-1080 = assay: Ferroptosis inhibition, cell viability assay (CellTiter-Glo); assay type: cell-based, Human; conditions: for IC50: Homo sapiens; for cellular efficacy/toxicity window: cytotoxic IC50 versus ferroptosis inhibition IC50, 1080 min
Protocol: Cell lines: Human fibrosarcoma cell line HT-1080 and immortalized Mouse Embryonic Fibroblasts (MEF). MEFs were a gift from Daniel Krappmann, HT-1080 were purchased from ATCC and both cell lines were grown in Dulbecco's Modified Eagle's medium (Thermo Fisher Scientific, 41966-029) supplemented with 10% fetal bovine serum (FBS, Thermo Fisher Scientific), 1% Penicillin-Streptomycin (Thermo Fisher Scientific) and 1% nonessential amino acids (MEM NEAA, Thermo Fisher Scientific). Cells were grown at 37° C. and 5% CO2.
HT-1080 were seeded into 384-well plates (CulturPlates, PerkinElmer) with a density of 750 cells per well. After 24 h of growth, cells were treated with 10 or 12-point serial dilutions of compounds in indicated concentrations for 18 h. Viability was detected by using CellTiter-Glo® 2.0 Regent (Promega) according to the manufacturer's instruction and luminescence was read out in an EnVison 2104 Multilabel plate reader (PerkinElmer).

[2] = system: Mouse Embryonic Fibroblasts (MEF); assay: Necroptosis assay, TNFα + zVAD-FMK + LCL161, cell viability; assay type: cell-based
Protocol: For detecting necroptosis, MEF were treated with TNFα, zVAD-FMK and LCL161 before addition of Seratrodast or Necrostatin-1. Cell viability was measured after 18 hours by adding CellTiter-Glo® 2.0 Reagent (Promega) according to the manufacturer's instruction and luminescence was read out.

[3] = * = signal quenching at higher concentration, toxicity might be less than indicated, read-out: cytotoxic IC50
[4] = HT-1080, based on the assays of example 1, read-out: IC50 (Ferroptosis inhibition)
[5] = HT-1080, read-out: IC50 (Ferroptosis inhibition)

Compound | IC50 (HT-1080; [4]) | CC50 at 18 h [1, 3] | cellular efficacy/toxicity window (HT-1080) | IC50 (HT-1080; [5]) | Necroptosis inhibition [2] | CC50 at 18 h [1]
O=C(O)c1ccccc1NC1=CC(=O)c2c(O)cccc2C1=O [iQFerr23] | 3480 nM | 16400 nM | 5-fold |  |  | 
O=C1c2ccccc2C(=O)c2c1c(-c1ccccc1)nn2-c1ccccc1 [iQFerr24, 1,3-diphenyl-1H-benzo-f-indazole-4,9-dione] | > 100000 nM |  |  |  |  | 
COc1ccc(CC2=CC(=O)c3ccccc3C2=O)cc1 [iQFerr31, 2-(4-methoxybenzyl)-1,4-naphtoquinone] | 1060 nM | 8700 nM | 8-fold |  |  | 
O=C1C=C(Cc2ccc(F)cc2)C(=O)c2ccccc21 [iQFerr28, 2-(4-fluorobenzyl)-1,4-naphtoquinone] | 32.4 nM | 1450 nM | 45-fold |  |  | 
Cc1ccc(N(CCCC(N)=O)C2=CC(=O)c3ccccc3C2=O)c(C)c1 [iQFerr40, 4-[(2,4-dimethylphenyl)(1,4-dioxo-1,4-dihydronaphthalen-2-yl)amino]butanamide] | 189 nM | 230 nM | 1,2-fold |  |  | 
CC(C)=CC[C@@H](O)C1=CC(=O)c2c(O)ccc(O)c2C1=O [iQFerr03, Shikonin] |  | 269 nM |  | > 1000 nM |  | 
CC(C)=CCCC1=CC(=O)c2c(O)ccc(O)c2C1=O [iQFerr05, Deoxyshikonin] |  | 1620 nM | 6-fold | 287 nM |  | 
O=C1C(O)=C(C(c2ccccc2)c2ccc(F)cc2)C(=O)c2ccccc21 (stereo not shown) [iQFerr34, 2-[(4-fluorophenyl)-phenylmethyl]-3-hydroxy 1,4-naphtoquinone] |  | 35000 nM |  | 71400 nM |  | 
CCOc1ccc(NC2=CC(=O)c3ccccc3C2=O)cc1 [iQFerr21, 2-(4-ethoxyanilino)-1,4-naphtoquinone] | 43 nM | 8570 nM | 199-fold |  |  | 
CC(=O)c1cccc(NC2=C(Cl)C(=O)c3ccccc3C2=O)c1 [iQFerr09, 2-(3-acetylanilino)-3-chloro-1,4-naphtoquinone] | 63 nM | 810 nM | 13-fold |  |  | 
Cc1ccc(N(CCCC(=O)O)C2=CC(=O)c3ccccc3C2=O)c(C)c1 [iQFerr42, 4-[(2,4-dimethylphenyl)(1,4-dioxo-1,4-dihydronaphthalen-2-yl)amino]butanoic acid] | 463 nM | 219 nM | 0,47-fold |  |  | 
O=C(O)c1ccc(NC2=C(Cl)C(=O)c3ccccc3C2=O)cc1 [iQFerr18, 4-[(3-chloro-1,4-dioxo-1,4-dihydronaphthalen-2-yl)amino]benzoic acid] | 94.1 nM | 2550 nM | 27-fold |  |  | 
CC(=O)c1ccc(NC2=C(Cl)C(=O)c3ccccc3C2=O)cc1 [iQFerr02, NQ301] | 27 nM | 759 nM | 28-fold |  | no | 
Cc1ccc(C(C2=C(O)C(=O)c3ccccc3C2=O)c2ccccc2)cc1 (stereo not shown) [iQFerr32, 2-hydroxy-3-[(4-methylphenyl)phenyl-methyl]-1,4-naphtoquinone] | 39800 nM | 34200 nM |  |  |  | 
CC(C)=CC[C@H](O)C1=CC(=O)c2c(O)ccc(O)c2C1=O [iQFerr04, Alkannin] |  | 573 nM |  | > 1000 nM |  | 
O=C1C=C(Nc2ccccc2C(=O)O)C(=O)C=C1Nc1ccccc1C(=O)O [QFerr26, 2,2-(3,6-dioxo-1,4-cyclohexadiene-1,4-diyl-diimino)dibenzoic acid] | > 100000 nM | 35400 nM |  |  |  | 
Cc1ccc(NC2=CC(=O)C=CC2=O)c(C)c1 [iQFerr25, 2-(2,4-dimethylanilino)-benzo-1,4-quinone] | 176 nM | 759 nM | 5-fold |  |  | 
CN(C)c1ccc(C(C2=C(O)C(=O)c3ccccc3C2=O)c2ccccc2)cc1 (stereo not shown) [iQFerr33, 2-[(4-dimethylamino-phenyl)phenylmethyl]-3-hydroxy-1,4-naphtoquinone] | 7580 nM | 71800 nM | 9-fold |  |  | 
O=C(O)c1ccc2c(c1)C(=O)c1ccccc1C2=O [iQFerr08, Anthraquinone-2-carboxyclic acid] |  |  |  | 13000 nM |  | > 100000 nM
COC1=C(OC)C(=O)C(CC=C(C)C)=C(C)C1=O [iQFerr07, Coenzyme Q1] | 30 nM | 10000 nM | 333-fold |  |  | 
O=C(O)CCCNC1=C(Cl)C(=O)c2ccccc2C1=O [iQFerr15, 4-[(3-chloro-1,4-dioxo-1,4-dihydronaphthalen-2-yl)amino]butanoic acid] | 1360 nM | 215000 nM | 159-fold |  |  | 
CCOc1ccc(NC2=CC(=O)C=CC2=O)cc1 [iQFerr27, 2-(4-ethoxyanilino)-benzo-1,4-quinone] | 493 nM | 2160 nM | 4-fold |  |  | 
CC(=O)Nc1ccc(NC2=C(C(F)(F)F)C(=O)c3ccccc3C2=O)cc1 [iQFerr44, N-(4-{[1,4-dioxo-3-(trifluoromethyl)-1,4-dihydronaphthalen-2-yl]amino}phenyl) acetamide] | 30.9 nM | 58800 nM | 1901-fold |  | no | 
CN(C)c1ccc(NC2=CC(=O)c3ccccc3C2=O)cc1 [iQFerr19, 2-[4-(dimethylamino)-anilino]-1,4-naphtoquinone] | 32.2 nM | 5850 nM | 182-fold |  |  | 
Cc1ccc(CC2=CC(=O)c3ccccc3C2=O)cc1 [iQFerr30, 2-(4-methylbenzyl)-1,4-naphtoquinone] | 38.4 nM | 5060 nM | 132-fold |  |  | 

Now from value to compound, other results behind:

IC50 (HT-1080; [4]) | Compound | CC50 at 18 h [1, 3] | cellular efficacy/toxicity window (HT-1080) | IC50 (HT-1080; [5]) | Necroptosis inhibition [2] | CC50 at 18 h [1]
4.5 nM | O=C1C(Cl)=C(Nc2ccccc2)C(=O)c2ccccc21 [iQFerr16, 2-anilino-3-chloro-1,4-naphtoquinone] | 279 nM | 62-fold |  |  | 
6 nM | COc1ccc(NC2=C(Cl)C(=O)c3ccccc3C2=O)cc1 [iQFerr12, 2-chloro-3-(4-methoxyanilino)-1,4-naphtoquinone] | 3520 nM | 586-fold |  |  | 
22.8 nM | CC(=O)Nc1ccc(N(CCCCCC(N)=O)C2=CC(=O)c3ccccc3C2=O)cc1 [iQFerr49, 6-[(1,4-dioxo-1,4-dihydronaphthalen-2-yl)(4-acetamidophenyl)amino] hexanamide] | 112000 nM | 4895-fold |  |  | 
6.1 nM | O=C1C(Cl)=C(Nc2ccc(F)cc2)C(=O)c2ccccc21 [iQFerr17, 2-chloro-3-(4-fluoroanilino)-1,4-naphtoquinone] | 397 nM | 65-fold |  |  | 
3 nM | Cc1ccc(NC2=C(Cl)C(=O)c3ccccc3C2=O)cc1 [iQFerr13, 2-chloro-3-(4-methylanilino)-1,4-naphtoquinone] | 380 nM | 126-fold |  |  | 
15.6 nM | Cc1ccc(NC2=CC(=O)c3ccccc3C2=O)cc1 [iQFerr22, 2-(4-methylanilino)-1,4-naphtoquinone] | 5500 nM | 354-fold |  |  | 
15.4 nM | Cc1ccc(NC2=CC(=O)c3ccccc3C2=O)c(C)c1 [iQFerr37, 2-[(2,4-dimethylphenyl)amino]-1,4-dihydronaphthalene-1,4-dione] | 48800 nM | 3162-fold |  |  | 
6 nM | O=C1C(Cl)=C(Nc2ccc(O)cc2)C(=O)c2ccccc21 [iQFerr11, 2-chloro-3-(4-hydroxy-phenylamino)-1,4-naphtoquinone] | 293 nM | 48-fold |  |  | 
1.56 nM | CC1=C(Nc2ccc(C)cc2)C(=O)c2ccccc2C1=O [iQFerr45, 2-methyl-3-[(4-methylphenyl)amino]-1,4-dihydronaphthalene-1,4-dione] | 40000 nM | 25634-fold |  |  | 
7.36 nM | CC(=O)Nc1ccc(NC2=C(Cl)C(=O)c3ccccc3C2=O)cc1 [iQFerr36, N-{4-[(3-chloro-1,4-dioxo-1,4-dihydronaphthalen-2 yl)amino]phenyl} acetamide] | 564 nM | 77-fold |  |  | 
3.91 nM | O=C1C=C(C(c2ccccc2)c2ccccc2)C(=O)c2ccccc21 [iQFerr29, 2-diphenylmethyl-1,4-naphtoquinone] | 4990 nM | 1277-fold |  | no | 
8 nM | CCc1ccc(NC2=C(Cl)C(=O)c3ccccc3C2=O)cc1 [iQFerr10, 2-chloro-3-(4-ethylanilino)-1,4-naphtoquinone] | 844 nM | 105-fold |  |  | 
